In the assay the target is purified recombinantly expressed human SSAO (Homo sapiens (Human), UniProt Q16853). Put plainly: SSAO enzyme inhibition assay (HRP-coupled hydrogen peroxide detection or 14C-benzaldehyde detection, benzylamine substrate). It counts as biochemical. To be noted: SSAO inhibitory activity, human recombinant SSAO, RT. How it is done: All primary assays were performed at RT. with purified recombinantly expressed human SSAO. Enzyme was prepared essentially as described in Öhman et al. (Protein Expression and Purification 46 (2006) 321-331). In addition, secondary- and selectivity assays were performed using SSAO prepared from various tissues or purified rat recombinant SSAO. The enzyme activity was assayed with benzylamine as substrate by measuring either benzaldehyde production, using ^14C-labeled substrate, or by utilizing the production of hydrogen peroxide in a horseradish peroxidase (HRP) coupled reaction. Briefly, test compounds were dissolved in dimethyl sulfoxide (DMSO) to a concentration of 10 mM. Dose-response measurements were assayed by either creating 1:10 serial dilutions in DMSO to produce a 7 point curve or by making 1:3 serial dilutions in DMSO to produce 11 point curves.
Chain of purified recombinantly expressed human SSAO (Q16853 29-763): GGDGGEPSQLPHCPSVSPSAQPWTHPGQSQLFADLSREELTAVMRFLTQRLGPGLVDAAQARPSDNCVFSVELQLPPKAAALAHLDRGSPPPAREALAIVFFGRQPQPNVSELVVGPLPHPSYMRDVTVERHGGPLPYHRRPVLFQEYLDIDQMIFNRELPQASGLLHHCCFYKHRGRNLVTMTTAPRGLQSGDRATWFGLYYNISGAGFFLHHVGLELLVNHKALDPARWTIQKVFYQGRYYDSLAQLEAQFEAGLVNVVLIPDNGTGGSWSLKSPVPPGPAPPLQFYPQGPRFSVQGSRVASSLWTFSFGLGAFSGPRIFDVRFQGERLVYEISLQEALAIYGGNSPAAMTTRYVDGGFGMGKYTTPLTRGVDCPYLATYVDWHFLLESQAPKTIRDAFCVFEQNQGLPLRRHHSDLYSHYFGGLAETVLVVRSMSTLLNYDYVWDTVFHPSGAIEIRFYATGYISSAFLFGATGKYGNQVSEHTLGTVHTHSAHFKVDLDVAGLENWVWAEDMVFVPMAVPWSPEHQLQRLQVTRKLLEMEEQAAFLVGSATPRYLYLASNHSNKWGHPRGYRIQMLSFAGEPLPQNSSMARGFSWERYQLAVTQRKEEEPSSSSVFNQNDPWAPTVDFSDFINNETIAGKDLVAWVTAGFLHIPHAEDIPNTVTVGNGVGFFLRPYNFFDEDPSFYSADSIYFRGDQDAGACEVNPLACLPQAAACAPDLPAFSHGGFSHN
In a horseradish peroxidase (HRP) coupled reaction, hydrogen peroxide oxidation of 10-acetyl-3,7-dihydroxyphenoxazine produced resorufin, which is a highly fluorescent compound (Zhout and Panchuk-Voloshina. Analytical Biochemistry 253 (1997) 169-174; Amplex® Red Hydrogen Peroxide/peroxidase Assay kit, Invitrogen A22188). Enzyme and compounds in 50 mM sodium phosphate, pH 7.4 were set to pre-incubate in flat-bottomed microtiter plates for approximately 15 min before initiating the reaction by addition of a mixture of HRP, benzylamine and Amplex reagent. Benzylamine concentration was fixed at a concentration corresponding to the Michaelis constant, determined using standard procedures. Fluorescence intensity was then measured at several time points during 1-2 h, exciting at 544 nm and reading the emission at 590 nm. For the human SSAO assay final concentrations of the reagents in the assay wells were: SSAO enzyme 1 ug/ml, benzylamine 100 uM, Amplex reagent 20 uM, HRP 0.1 U/mL and varying concentrations of test compound. The inhibition was measured as % decrease of the signal compared to a control without inhibitor (only diluted DMSO). The background signal from a sample containing no SSAO enzyme was subtracted from all data points. Data was fitted to a four parameter logistic model and IC50 values were calculated using the GraphPad Prism 4 or XLfit 4 programs.
SSAO activity was assayed using 14C-labeled benzylamine and analysed by measuring radioactive benzaldehyde. In a white 96-well optiplate (Packard), 20 uL of diluted test compound was pre-incubated at room temperature with 20 uL SSAO enzyme for approximately 15 min with continuous agitation. All dilutions were made with PBS. The reaction was initiated by adding 20 uL of the benzylamine substrate solution containing [7-14C] Benzylamine hydrochloride (CFA589, GE Healthcare). The plate was incubated for 1 h as above after which the reaction was stopped by acidification (10 uL 1M aq HCl). Then 90 uL Micro Scint-E solution (Perkin-Elmer) was added to each well and the plate was continuously mixed for 15 min. Phase separation occurred instantly and activity was read in a Topcount scintillation counter (Perkin-Elmer). In the final reaction well, the human recombinant SSAO concentration was 10 ug/ml. In order to optimize sensitivity, the substrate concentration was decreased as compared to the HRP coupled assay in order to get a higher fraction of radioactive product. In the human SSAO assay, benzylamine concentration was 40 uM (0.2 uCi/mL). Data was analysed as above.

A word on the IC50: it is the midpoint of a concentration-inhibition curve.

Consider `Brc1ccc(-n2c(-c3cnc(N4CCOCC4)nc3)cc3ccncc32)cc1` [Example 133, 4-{5-[1-(4-Bromophenyl)-1H-pyrrolo[2,3-c]pyridin-2-yl]pyrimidin-2-yl}morpholine], for which the half-maximal inhibitory concentration (IC50) is below 50 nM. As to `Fc1cc(Cl)ccc1-n1c(-c2cnc(N3CCCC3)nc2)nc2ccncc21` [Example 83, 5-[3-(4-Chloro-2-fluorophenyl)-3H-imidazo[4,5-c]pyridin-2-yl]-2-(pyrrolidin-1-yl)pyrimidine], the IC50 was below 50 nM. Regarding `Clc1ccc(-n2c(-c3cnccn3)cc3ccncc32)cc1` [Example 124, 2-[1-(4-Chlorophenyl)-1H-pyrrolo[2,3-c]pyridin-2-yl]pyrazine], the IC50 is below 50 nM. To `Fc1ccc(-n2c(-c3ccc(OC4CCOC4)nc3)nc3ccncc32)cc1` (centres unmarked) [Example 112, 5-[3-(4-Fluorophenyl)-3H-imidazo[4,5-c]pyridin-2-yl]-2-(oxolan-3-yloxy)pyridine] belongs below 50 nM; to `Cc1ccc(-n2c(-c3cnc(NCCOC(C)C)nc3)nc3ccncc32)cc1` [Example 39, 5-[3-(4-Methylphenyl)-3H-imidazo[4,5-c]pyridin-2-yl]-N-[2-(propan-2-yloxy)ethyl]pyrimidin-2-amine], below 50 nM. Consider `Cc1cc(N2CCOCC2)ncc1-c1cc2ccncc2n1-c1ccc(Cl)cc1` [Example 129, 4-{5-[1-(4-Chlorophenyl)-1H-pyrrolo[2,3-c]pyridin-2-yl]-4-methylpyridin-2-yl}morpholine; bis(trifluoroacetic acid)], for which the IC50 was below 50 nM.

On to `Cc1nc(C)c(-c2cc3ccncc3n2-c2ccc(Cl)cc2)[nH]1` [Example 126, 5-[1-(4-Chlorophenyl)-1H-pyrrolo[2,3-c]pyridin-2-yl]-2,4-dimethyl-1H-imidazole], for which the half-maximal inhibitory concentration (IC50) was below 50 nM.

As to `CC(=O)N1CCCN(c2ccc(-c3nc4ccncc4n3-c3ccc(F)cc3)cn2)CC1` [Example 87, 1-(4-{5-[3-(4-Fluorophenyl)-3H-imidazo[4,5-c]pyridin-2-yl]pyridin-2-yl}-1,4-diazepan-1-yl)ethan-1-one; bis(trifluoroacetic acid)], the IC50 is below 50 nM. To `NC1CCN(c2ccc(-c3nc4ccncc4n3-c3ccc(Cl)cc3)cn2)CC1` [Example 8, 1-{5-[3-(4-Chlorophenyl)-3H-imidazo[4,5-c]pyridin-2-yl]pyridin-2-yl}piperidin-4-amine] belongs below 50 nM. Turning to `Cn1c(-c2cc3ccncc3n2-c2ccc(Cl)cc2)cccc1=O` [Example 145, 6-[1-(4-Chlorophenyl)-1H-pyrrolo[2,3-c]pyridin-2-yl]-1-methyl-1,2-dihydropyridin-2-one], the IC50 is below 50 nM. On to `CN(C)c1ncc(-c2nc3ccncc3n2-c2ccc(Cl)cc2F)cn1` [Example 84, 5-[3-(4-Chloro-2-fluorophenyl)-3H-imidazo[4,5-c]pyridin-2-yl]-N,N-dimethylpyrimidin-2-amine], for which the IC50 is below 50 nM.

`Fc1ccc(-n2c(-c3cnc(N4CCCOCC4)nc3)nc3ccncc32)cc1` [Example 25, 4-{5-[3-(4-Fluorophenyl)-3H-imidazo[4,5-c]pyridin-2-yl]pyrimidin-2-yl}-1,4-oxazepane]: the IC50 is below 50 nM. `Clc1ccc(-n2c(-c3ccc(Cn4ccnc4)cc3)nc3ccncc32)cc1` [Example 48, 1-({4-[3-(4-Chlorophenyl)-3H-imidazo[4,5-c]pyridin-2-yl]phenyl}methyl)-1H-imidazole]: the IC50 was below 50 nM. For the molecule `CCOCCNc1ncc(-c2nc3ccncc3n2-c2ccc(C)cc2)cn1` [Example 43, N-(2-Ethoxyethyl)-5-[3-(4-methylphenyl)-3H-imidazo[4,5-c]pyridin-2-yl]pyrimidin-2-amine], the IC50 was below 50 nM. With `Cc1cc(N(C)C)ncc1-c1nc2ccncc2n1-c1ccc(F)cc1` [Example 111, 5-[3-(4-Fluorophenyl)-3H-imidazo[4,5-c]pyridin-2-yl]-N,N,4-trimethylpyridin-2-amine], the IC50 fell in the range of 200 to 1200 nM.

`Cc1cc(F)ccc1-n1c(-c2cnc(N3CCOCC3)nc2)nc2ccncc21` [Example 55, 4-{5-[3-(4-Fluoro-2-methylphenyl)-3H-imidazo[4,5-c]pyridin-2-yl]pyrimidin-2-yl}morpholine]: the IC50 was below 50 nM. In the case of `Clc1ccc(-n2c(-c3cncnc3)cc3ccncc32)cc1` [Example 123], the IC50 is below 50 nM.

`Cc1nc(N2CCOCC2)ncc1-c1nc2ccncc2n1-c1ccc(Cl)cc1F` [Example 27, 4-{5-[3-(4-Chloro-2-fluorophenyl)-3H-imidazo[4,5-c]pyridin-2-yl]-4-methylpyrimidin-2-yl}morpholine]: the half-maximal inhibitory concentration (IC50) is below 50 nM.

As for `Clc1ccc(-n2c(-c3cnc(NCC4CC4)nc3)cc3ccncc32)cc1` [Example 149, 5-[1-(4-Chlorophenyl)-1H-pyrrolo[2,3-c]pyridin-2-yl]-N-(cyclopropylmethyl)pyrimidin-2-amine], the IC50 was below 50 nM. As to `Cc1ccc(-n2c(-c3cnc(N4CCOCC4)nc3)nc3ccncc32)nc1` [Example 79, 4-{5-[3-(5-Methylpyridin-2-yl)-3H-imidazo[4,5-c]pyridin-2-yl]pyrimidin-2-yl}morpholine], the 50% inhibitory concentration (IC50) is below 50 nM. `Cn1nccc1-c1cc2ccncc2n1-c1ccc(Cl)cc1` [Example 134, 5-[1-(4-Chlorophenyl)-1H-pyrrolo[2,3-c]pyridin-2-yl]-1-methyl-1H-pyrazole]: the IC50 was below 50 nM. In the case of `CN(C)c1ncc(-c2cc3ccncc3n2-c2ccc(Cl)cc2)cn1` [Example 137, 5-[1-(4-Chlorophenyl)-1H-pyrrolo[2,3-c]pyridin-2-yl]-N,N-dimethylpyrimidin-2-amine; bis(trifluoroacetic acid)] it was below 50 nM; in that of `Fc1ccc(-n2c(-c3ccc(N4CCOCC4)nc3)nc3ccncc32)c(Cl)c1` [Example 61, 4-{5-[3-(2-Chloro-4-fluorophenyl)-3H-imidazo[4,5-c]pyridin-2-yl]pyridin-2-yl}morpholine], below 50 nM. For the molecule `O=c1cc(N2CCOCC2)[nH]cc1-c1nc2ccncc2n1-c1ccc(F)cc1` [Example 99, 5-[3-(4-Fluorophenyl)-3H-imidazo[4,5-c]pyridin-2-yl]-2-(morpholin-4-yl)-1,4-dihydropyridin-4-one], the IC50 is below 50 nM. In the case of `Clc1ccc(-n2c(-c3cnc(NC4CCOCC4)nc3)cc3ccncc32)cc1` [Example 139, 5-[1-(4-Chlorophenyl)-1H-pyrrolo[2,3-c]pyridin-2-yl]-N-(oxan-4-yl)pyrimidin-2-amine] it was below 50 nM; in that of `Clc1ccc(-n2c(-c3ccc(N4CCOCC4)nn3)nc3ccncc32)cc1` [Example 4, 4-{6-[3-(4-Chlorophenyl)-3H-imidazo[4,5-c]pyridin-2-yl]pyridazin-3-yl}morpholine], below 50 nM.

As to `Cc1cnccc1-c1cc2ccncc2n1-c1ccc(Cl)cc1` [Example 154, 4-[1-(4-Chlorophenyl)-1H-pyrrolo[2,3-c]pyridin-2-yl]-3-methylpyridine], the IC50 is below 50 nM. For `Cn1cc(-c2cc3ccncc3n2-c2ccc(Cl)cc2)cn1` [Example 135, 4-[1-(4-Chlorophenyl)-1H-pyrrolo[2,3-c]pyridin-2-yl]-1-methyl-1H-pyrazole], the IC50 was below 50 nM. Turning to `COCCCNc1ncc(-c2nc3ccncc3n2-c2ccc(C)cc2)cn1` [Example 37, N-(3-Methoxypropyl)-5-[3-(4-methylphenyl)-3H-imidazo[4,5-c]pyridin-2-yl]pyrimidin-2-amine], the IC50 was below 50 nM. Turning to `O=c1cc(-c2cc3ccncc3n2-c2ccccc2)ccn1C1CC1` [Example 155, 1-Cyclopropyl-4-{1-phenyl-1H-pyrrolo[2,3-c]pyridin-2-yl}-1,2-dihydropyridin-2-one], the IC50 fell in the range of 200 to 1200 nM.

For the molecule `Clc1ccc(-n2c(-c3ccc(N4CCOCC4)nc3)nc3ccncc32)cc1` [Example 47, 4-{5-[3-(4-Chlorophenyl)-3H-imidazo[4,5-c]pyridin-2-yl]pyridin-2-yl}morpholine], the IC50 is below 50 nM. In the case of `Nc1cc(-c2cc3ccncc3n2-c2ccc(Cl)cc2)ccn1` [Example 147, 4-[1-(4-Chlorophenyl)-1H-pyrrolo[2,3-c]pyridin-2-yl]pyridin-2-amine] it was below 50 nM.

For the origin of these results see US9951068B2 (Proximagen Limited, priority 2013, dated 2018).
